Data from patent US9783537B2, “3-(4-ethylnylphenyl) pyridopyrimidinone compounds and process for preparation thereof useful as potential anticancer agents” (Council of Scientific & Industrial Research, priority 2013, dated 2017).
Like-named read-outs stand apart in the source and are kept apart here.

Key:
[1] = test system: seven ovarian cancer cell lines (IGROV1, OVCAR-3, OVCAR-4, OVCAR-5, OVCAR-8, NCI/ADR-RES and SK-OV-3); test: in vitro anticancer activity, ovarian panel; type: cell-based; conditions: Homo sapiens, exposure at least 48 h, read-out: GI50, range over panel
[2] = test system: NCI/ADR-RES; test: SRB 48 h growth assay, Ovarian NCI/ADR-RES; type: cell-based, human
[3] = test system: two prostate cancer cell line (PC-3, DU-145); test: in vitro anticancer activity, prostate panel; type: cell-based; conditions: Homo sapiens; two prostate cancer cell lines, exposure at least 48 h; read-out: GI50, range over panel
[4] = test system: OVCAR-8; test: SRB 48 h growth assay, Ovarian OVCAR-8; type: cell-based, human; conditions: OVCAR-8, Ovarian
[5] = test system: SK-MEL-2; test: SRB 48 h growth assay, Melanoma SK-MEL-2; type: cell-based, human; conditions: SK-MEL-2, Melanoma
[6] = test system: NCI-H23; test: SRB 48 h growth assay, Non-small Cell Lung NCI-H23; type: cell-based, human
[7] = test system: UO-31; test: SRB 48 h growth assay, Renal UO-31; type: cell-based, human; conditions: UO-31, Renal
[8] = test system: U251; test: SRB 48 h growth assay, CNS U251; type: cell-based, human
[9] = test system: HOP-92; test: SRB 48 h growth assay, Non-small Cell Lung HOP-92; type: cell-based, human; conditions: HOP-92, Non-small Cell Lung
[10] = test system: CCRF-CEM; test: SRB 48 h growth assay, Leukemia CCRF-CEM; type: cell-based, human
[11] = test system: HS578T; test: SRB 48 h growth assay, Breast HS578T; type: cell-based, human
[12] = test system: OVCAR-3; test: SRB 48 h growth assay, Ovarian OVCAR-3; type: cell-based, human; conditions: OVCAR-3, Ovarian
[13] = test system: SNB-19; test: SRB 48 h growth assay, CNS SNB-19; type: cell-based, human; conditions: SNB-19, CNS
[14] = test system: HOP-62; test: SRB 48 h growth assay, Non-small Cell Lung HOP-62; type: cell-based, human; conditions: HOP-62, Non-small Cell Lung
[15] = in vitro anticancer activity, non-small cell lung panel; type: cell-based; conditions: Homo sapiens; nine non-small cell lung cancer cell lines, exposure at least 48 h; read-out: GI50, range over panel
[16] = test system: SK-MEL-28; test: SRB 48 h growth assay, Melanoma SK-MEL-28; type: cell-based, human; conditions: SK-MEL-28, Melanoma
[17] = test system: six breast cancer cell line (MCF-7, MDA-MB-231/ATCC, HS 578T, TD-47D, MDA-MB-468 and BT-549); test: in vitro anticancer activity, breast panel; type: cell-based; conditions: Homo sapiens; six breast cancer cell lines, exposure at least 48 h; read-out: GI50, range over panel
[18] = test system: KM12; test: SRB 48 h growth assay, Colon KM12; type: cell-based, human
[19] = test system: HT-29; test: SRB 48 h growth assay, Colon HT-29; type: cell-based, human; conditions: HT-29, Colon
[20] = test system: OVCAR-4; test: SRB 48 h growth assay, Ovarian OVCAR-4; type: cell-based, human; conditions: OVCAR-4, Ovarian
[21] = test system: 786-0; test: SRB 48 h growth assay, Renal 786-0; type: cell-based, human; conditions: 786-0, Renal
[22] = test system: RXF393; test: SRB 48 h growth assay, Renal RXF393; type: cell-based, human
[23] = test system: UACC-257; test: SRB 48 h growth assay, Melanoma UACC-257; type: cell-based, human; conditions: UACC-257, Melanoma
[24] = test system: T-47D; test: SRB 48 h growth assay, Breast T-47D; type: cell-based, human
[25] = test system: HCC-2998; test: SRB 48 h growth assay, Colon HCC-2998; type: cell-based, human; conditions: HCC-2998, Colon
[26] = test system: HCT-116; test: SRB 48 h growth assay, Colon HCT-116; type: cell-based, human; conditions: HCT-116, Colon
[27] = Homo sapiens, read-out: Growth Inhibition GI50
[28] = Homo sapiens, read-out: Log10 GI50 (converted)
[29] = Homo sapiens, read-out: Log10 LC50 (converted)

For `C#Cc1ccc(-n2c(/C=C/c3ccc(O)cc3)nc3ncccc3c2=O)cc1` [4b, (E)-3-(4-Ethynylphenyl)-2-(4-hydroxystyryl)pyrido[2,3-d]pyrimidin-4(3H)-one], the GI50 [1] was 2.33 to 9.67 µM, the “Log10 TGI50” value [2] was greater than −4.00 and the GI50 [2, 27] was 5.28 µM. It also gave a GI50 [2, 28] of 5.25 µM, a CC50 [2, 29] greater than 100 µM and a GI50 [3] of 3.96 to 5.36 µM. The GI50 [4, 27] was 4.39 µM, the GI50 [4, 28] was 4.37 µM and the CC50 [4, 29] was greater than 100 µM. The “Log10 TGI50” value [4] was −4.33, the GI50 [5, 27] was 3.95 µM and the GI50 [5, 28] was 3.98 µM. The CC50 [5, 29] was greater than 100 µM, the “Log10 TGI50” value [5] was −4.39 and the “Log10 TGI50” value [6] was greater than −4.00. The GI50 [6, 27] was 5.52 µM, the GI50 [6, 28] was 5.5 µM and the LC50 [6, 29] was greater than 100 µM. It also gave a GI50 [7, 27] of 3.79 µM, a GI50 [7, 28] of 3.8 µM and a CC50 [7, 29] greater than 100 µM. The “Log10 TGI50” value [7] was −4.47, the “Log10 TGI50” value [8] was greater than −4.00 and the GI50 ([8]; Homo sapiens, U-251, read-out: Growth Inhibition GI50) was 4.02 µM. The GI50 ([8]; Homo sapiens, U-251, read-out: Log10 GI50 (converted)) was 3.98 µM, the CC50 ([8]; Homo sapiens, U-251, read-out: Log10 LC50 (converted)) was greater than 100 µM and the “Log10 TGI50” value [9] was −4.77. It also gave a GI50 [9, 27] of 1.8 µM, a GI50 [9, 28] of 1.82 µM and a CC50 [9, 29] greater than 100 µM. For the same compound, the “Log10 TGI50” value [10] was greater than −4.00, the CC50 ([10]; Homo sapiens, CCKF-CEM, read-out: Log10 LC50 (converted)) was greater than 100 µM and the GI50 [10, 27] was 3.3 µM. For the same compound, the GI50 [10, 28] was 3.31 µM, the “Log10 TGI50” value [11] was −4.52 and the GI50 ([11]; Homo sapiens, Hs-578T, read-out: Growth Inhibition GI50) was 3.24 µM. The GI50 ([11]; Homo sapiens, Hs-578T, read-out: Log10 GI50 (converted)) was 3.24 µM, the CC50 ([11]; Homo sapiens, Hs-578T, read-out: Log10 LC50 (converted)) was greater than 100 µM and the GI50 [12, 27] was 2.41 µM. For the same compound, the GI50 [12, 28] was 2.4 µM, the CC50 [12, 29] was greater than 72.4 µM and the “Log10 TGI50” value [12] was −5.24. The GI50 [13, 27] was 6.26 µM, the GI50 [13, 28] was 6.31 µM and the CC50 [13, 29] was greater than 100 µM. The “Log10 TGI50” value [13] was greater than −4.00, the “Log10 TGI50” value [14] was −4.25 and the GI50 [14, 27] was 5.66 µM. The GI50 [14, 28] was 5.62 µM, the CC50 [14, 29] was greater than 100 µM and the GI50 [15] was 2.31 to 17.3 µM. It also gave a GI50 [16, 27] of 5.97 µM, a GI50 [16, 28] of 6.03 µM and a CC50 [16, 29] greater than 100 µM. The “Log10 TGI50” value [16] was greater than −4.00, the GI50 [17] was 2.83 to 5.85 µM and the “Log10 TGI50” value [18] was −4.22. It also gave a GI50 [18, 27] of 3.81 µM, a GI50 [18, 28] of 3.8 µM and a CC50 [18, 29] greater than 100 µM. For the same compound, the “Log10 TGI50” value [19] was greater than −4.00, the GI50 [19, 27] was 52.8 µM and the GI50 [19, 28] was 52.5 µM. It also gave a CC50 [19, 29] greater than 100 µM, a GI50 [20, 27] of 22.8 µM and a GI50 [20, 28] of 1.58 µM. The CC50 [20, 29] was greater than 100 µM, the “Log10 TGI50” value [20] was greater than −4.00 and the “Log10 TGI50” value [21] was greater than −4.30. For the same compound, the GI50 [21, 27] was 4.88 µM, the GI50 [21, 28] was 4.9 µM and the CC50 [21, 29] was greater than 100 µM. The “Log10 TGI50” value [22] was −5.36, the GI50 ([22]; Homo sapiens, RXF 393, read-out: Growth Inhibition GI50) was 1.48 µM and the GI50 ([22]; Homo sapiens, RXF 393, read-out: Log10 GI50 (converted)) was 1.48 µM. The CC50 ([22]; Homo sapiens, RXF 393, read-out: Log10 LC50 (converted)) was greater than 72.4 µM, the GI50 [23, 27] was 6.3 µM and the GI50 [23, 28] was 6.31 µM. For the same compound, the CC50 [23, 29] was greater than 100 µM, the “Log10 TGI50” value [23] was greater than −4.00 and the “Log10 TGI50” value [24] was greater than −4.00. For the same compound, the GI50 ([24]; Homo sapiens, T47D, read-out: Growth Inhibition GI50) was 4.63 µM, the GI50 ([24]; Homo sapiens, T47D, read-out: Log10 GI50 (converted)) was 4.68 µM and the CC50 ([24]; Homo sapiens, T47D, read-out: Log10 LC50 (converted)) was greater than 100 µM. For the same compound, the “Log10 TGI50” value [25] was greater than −4.00, the GI50 [25, 27] was 25.7 µM and the GI50 [25, 28] was 25.7 µM. The CC50 [25, 29] was greater than 100 µM, the “Log10 TGI50” value [26] was greater than −4.00 and the GI50 [26, 27] was 5.07 µM. It also gave a GI50 [26, 28] of 5.01 µM and a CC50 [26, 29] greater than 100 µM.
